Laboratory results taken from PubChem BioAssay AID2060343 (Molecular Pharmacology Branch, DTP, NCI, 2025).
Several values for one entry are separate records, joined by “and”; a condition that tells them apart may be missing. Equal entries are not always repeated.

System: 138582-337-R-J1-PDC spheroids with HUVEC/MSC, viability
Test: Anticancer human tumor 138582-337-R-J1-PDC patient-derived Merkel cell tumor cell line growth inhibition [IpAb]
Settings: for viability, T/C: stronger effect = lower value
From the text: Combinatorial screen of targeted agents with ipatasertib and abemaciclib in multi-cell type tumor spheroids
A high-throughput screen of multi-cell type tumor spheroids was designed to identify active combinations of targeted small molecules and ipatasertib or abemaciclib. Complex spheroids include a stromal component modeled by human endothelial cells (HUVEC) and fibroblasts modeled by human mesenchymal stem cells (MSCs). The concentration ranges selected for each drug and investigational agent were based upon clinically achievable concentrations if the clinical Cmax of the agent was known.
Compounds. The drugs and investigational agents: ipatasertib (NSC767898), abemaciclib(NSC768073), selumetinib (NSC741078), trametinib (758246), adavosertib (NSC754352), everolimus (NSC733504), sapanisertib (NSC764658), vemurafenib (NSC761431), venetoclax (NSC766270), copanlisib (NSC809693), apelisib (NSC765974), palbociblib (NSC758247), vemurafenib (NSC761431), dabrafenib (NSC764134), ravoxertinib (NSC781343), BMS-387032 (NSC767048), sotorasib (NSC818433), talazoparib (NSC767125) and afursertib (NSC778305), were obtained from the National Cancer Institute (NCI) Developmental Therapeutics Program Chemical Repository. The FDA-approved anticancer drug set is available from the NCI Developmental Therapeutics Program. […] The stock solutions were prepared in dimethyl sulfoxide (DMSO, Sigma-Aldrich, St. Louis, MO, cat. D2650) at 800-fold the tested concentration and stored at -70 degrees C prior to their use. All drugs and investigational agents were tested over a range starting from a high concentration at or near the clinical Cmax and decreasing in half-log increments. If the clinical Cmax for an agent had not been determined, the highest concentration tested was 10 microM.
NCI60 Cell Culture. NCI60 cell lines were obtained from the NCI Developmental Therapeutics Program Tumor Repository. For each lot of cells, the Repository performed Applied Biosystems AmpFLSTR Identifiler testing with PCR amplification to confirm consistency with the published Identifier STR profile for each cell line. Cells were kept in continuous culture for no more than 20 passages. The optimal seeding densities for each of the cell lines at each time point assessed were determined prior to performing the concentration response studies. Briefly, the NCI60 human tumor lines were grown as monolayers in RPMI 1640 medium supplemented with 10% FBS and 2 mmol/L L-glutamine.
An additional 9 lines were from the NCI60 cell line panel including MDA-MB-231 breast carcinoma, MDA-MB-468 breast carcinoma, MCF7 breast carcinoma, Hs578T breast carcinoma, MALME-3M melanoma, SK-MEL-2 melanoma, SK-OV-3 ovarian carcinoma, DU-145 prostate carcinoma, PC-3 prostate carcinoma, all cell lines along with major genetic alterations are listed on Table 2. Pooled donor human umbilical vein endothelial cells (HUVEC, Lonza, cat. CC-2519) and human mesenchymal stem cells (hMSC, Lonza, cat. PT-2501) were purchased from Lonza (Walkersville, MD).
PDMR cell lines were grown in complete medium (DC medium): Dulbecco's modified Eagle's medium (DMEM)/F12 supplemented with 5% fetal bovine serum (FBS), 2 mM L-glutamine, 100 U/mL penicillin and 100 µg/ml streptomycin, 0.4 µg/ml hydrocortisone, 10 ng/ml epidermal growth factor (EGF) recombinant human protein, 24 µg/mL adenine, and 0.1 mg/mL primocin. During culture from frozen stock vials, PDMR cells were cultured in the same medium containing 10 µM Y-27632 (see Table 3). The PDCs were cultured in complete DMEM/F12 media without 10 microM Y-27632 dihydrochloride for at least two passages prior to the screen. The pooled donor HUVEC and hMSC were cultured in endothelial cell growth medium 2 (PromoCell, Heidelberg, Germany, cat. C-22011) and mesenchymal stem cell growth medium 2 (PromoCell, cat. C-28009), respectively. For all experiments, HUVEC and hMSC were used at passages </=5.
[…]

[1] = curve of first compound, second compound 0.01 µM
[2] = curve of first compound, second compound 0.0316 µM
[3] = curve of first compound, second compound 0.1 µM
[4] = curve of first compound, second compound 0.316 µM
[5] = curve of first compound, second compound 1 µM
[6] = second compound 0.01 µM, first compound 0.0316 µM
[7] = second compound 0.01 µM, first compound 0.1 µM
[8] = second compound 0.0316 µM, first compound 0.0316 µM
[9] = second compound 0.0316 µM, first compound 0.1 µM
[10] = second compound 0.1 µM, first compound 0.0316 µM
[11] = second compound 0.1 µM, first compound 0.1 µM
[12] = second compound 0.316 µM, first compound 0.0316 µM
[13] = second compound 0.316 µM, first compound 0.1 µM
[14] = second compound 1 µM, first compound 0.0316 µM
[15] = second compound 1 µM, first compound 0.1 µM
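Further: spheroids exposed to compounds for seven days.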
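Wherever viability, T/C is given: 100% = DMSO vehicle control viability.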

Question: `CC(C)n1nc(-c2ccc3oc(N)nc3c2)c2c(N)ncnc21` + CCN1CCN(Cc2ccc(Nc3ncc(F)c(-c4cc(F)c5nc(C)n(C(C)C)c5c4)n3)nc2)CC1 was tested. Which IC50 [1] did it give?
Answer: 59.8 nM

Question: What about the IC50 [2] of the same molecule?
Answer: 26.9 nM

Question: And the IC50 [3]?
Answer: 52.9 nM

Question: What about the IC50 [4] of the same molecule?
Answer: > 100 nM

Question: What about the IC50 [5] of the same molecule?
Answer: 69.4 nM

Question: What about the viability, T/C (second compound 0.01 µM, first compound 0.000316 µM) of the same molecule?
Answer: 102%

Question: And the viability, T/C (second compound 0.01 µM, first compound 0.001 µM)?
Answer: 88%

Question: And the viability, T/C (second compound 0.01 µM, first compound 0.00316 µM)?
Answer: 73.4%

Question: And the viability, T/C (second compound 0.01 µM, first compound 0.01 µM)?
Answer: 76.5%

Question: And the viability, T/C [6]?
Answer: 58.2%

Question: And the viability, T/C [7]?
Answer: 42.2%

Question: And the viability, T/C (second compound 0.0316 µM, first compound 0.000316 µM)?
Answer: 88%

Question: And the viability, T/C (second compound 0.0316 µM, first compound 0.001 µM)?
Answer: 74.5%

Question: And the viability, T/C (second compound 0.0316 µM, first compound 0.00316 µM)?
Answer: 90.8%

Question: What about the viability, T/C (second compound 0.0316 µM, first compound 0.01 µM) of the same molecule?
Answer: 71%

Question: And the viability, T/C [8]?
Answer: 47.5%

Question: And the viability, T/C [9]?
Answer: 38.7%

Question: And the viability, T/C (second compound 0.1 µM, first compound 0.000316 µM)?
Answer: 93.6%

Question: What about the viability, T/C (second compound 0.1 µM, first compound 0.001 µM) of the same molecule?
Answer: 88.4%

Question: And the viability, T/C (second compound 0.1 µM, first compound 0.00316 µM)?
Answer: 78.8%

Question: And the viability, T/C (second compound 0.1 µM, first compound 0.01 µM)?
Answer: 68.1%

Question: What about the viability, T/C [10] of the same molecule?
Answer: 55.1%

Question: What about the viability, T/C [11] of the same molecule?
Answer: 43.6%

Question: What about the viability, T/C (second compound 0.316 µM, first compound 0.000316 µM) of the same molecule?
Answer: 96.5%

Question: What about the viability, T/C (second compound 0.316 µM, first compound 0.001 µM) of the same molecule?
Answer: 96.6%

Question: What about the viability, T/C (second compound 0.316 µM, first compound 0.00316 µM) of the same molecule?
Answer: 80%

Question: What about the viability, T/C (second compound 0.316 µM, first compound 0.01 µM) of the same molecule?
Answer: 56.5%

Question: What about the viability, T/C [12] of the same molecule?
Answer: 53.2%

Question: What about the viability, T/C [13] of the same molecule?
Answer: 50.2%

Question: And the viability, T/C (second compound 1 µM, first compound 0.000316 µM)?
Answer: 88.8%

Question: What about the viability, T/C (second compound 1 µM, first compound 0.001 µM) of the same molecule?
Answer: 93.5%

Question: What about the viability, T/C (second compound 1 µM, first compound 0.00316 µM) of the same molecule?
Answer: 82.6%

Question: And the viability, T/C (second compound 1 µM, first compound 0.01 µM)?
Answer: 61.3%

Question: What about the viability, T/C [14] of the same molecule?
Answer: 52.1%

Question: What about the viability, T/C [15] of the same molecule?
Answer: 48.6%

Question: Which IC50 [1] does the source give for `Cn1nccc1Nc1nccc(-c2ccn(C(CO)c3ccc(Cl)c(F)c3)c(=O)c2)n1` (configuration not stated) + CCN1CCN(Cc2ccc(Nc3ncc(F)c(-c4cc(F)c5nc(C)n(C(C)C)c5c4)n3)nc2)CC1 here?
Answer: > 10000 nM

Question: What about the IC50 [2] of the same molecule?
Answer: > 10000 nM

Question: What about the IC50 [3] of the same molecule?
Answer: > 10000 nM

Question: What about the IC50 [4] of the same molecule?
Answer: > 10000 nM

Question: And the IC50 [5]?
Answer: > 10000 nM

Question: And the viability, T/C [6]?
Answer: 99.8%

Question: What about the viability, T/C [7] of the same molecule?
Answer: 92.3%

Question: What about the viability, T/C (second compound 0.01 µM, first compound 0.316 µM) of the same molecule?
Answer: 90.1%

Question: What about the viability, T/C (second compound 0.01 µM, first compound 1 µM) of the same molecule?
Answer: 94.8%

Question: And the viability, T/C (second compound 0.01 µM, first compound 3.16 µM)?
Answer: 107%

Question: And the viability, T/C (second compound 0.01 µM, first compound 10 µM)?
Answer: 154%

Question: What about the viability, T/C [8] of the same molecule?
Answer: 88.3%

Question: What about the viability, T/C [9] of the same molecule?
Answer: 90.5%

Question: What about the viability, T/C (second compound 0.0316 µM, first compound 0.316 µM) of the same molecule?
Answer: 82.7%

Question: What about the viability, T/C (second compound 0.0316 µM, first compound 1 µM) of the same molecule?
Answer: 91.9%

Question: And the viability, T/C (second compound 0.0316 µM, first compound 3.16 µM)?
Answer: 107%

Question: What about the viability, T/C (second compound 0.0316 µM, first compound 10 µM) of the same molecule?
Answer: 149%

Question: And the viability, T/C [10]?
Answer: 79.9%

Question: What about the viability, T/C [11] of the same molecule?
Answer: 89.8%

Question: And the viability, T/C (second compound 0.1 µM, first compound 0.316 µM)?
Answer: 79.6%

Question: And the viability, T/C (second compound 0.1 µM, first compound 1 µM)?
Answer: 90.2%

Question: And the viability, T/C (second compound 0.1 µM, first compound 3.16 µM)?
Answer: 108%

Question: What about the viability, T/C (second compound 0.1 µM, first compound 10 µM) of the same molecule?
Answer: 134%

Question: And the viability, T/C [12]?
Answer: 89.8%

Question: And the viability, T/C [13]?
Answer: 82.7%

Question: What about the viability, T/C (second compound 0.316 µM, first compound 0.316 µM) of the same molecule?
Answer: 88.6%

Question: What about the viability, T/C (second compound 0.316 µM, first compound 1 µM) of the same molecule?
Answer: 96%

Question: And the viability, T/C (second compound 0.316 µM, first compound 3.16 µM)?
Answer: 124%

Question: And the viability, T/C (second compound 0.316 µM, first compound 10 µM)?
Answer: 173%

Question: What about the viability, T/C [14] of the same molecule?
Answer: 106%

Question: And the viability, T/C [15]?
Answer: 96%

Question: And the viability, T/C (second compound 1 µM, first compound 0.316 µM)?
Answer: 83.2%

Question: What about the viability, T/C (second compound 1 µM, first compound 1 µM) of the same molecule?
Answer: 97.6%

Question: What about the viability, T/C (second compound 1 µM, first compound 3.16 µM) of the same molecule?
Answer: 142%

Question: And the viability, T/C (second compound 1 µM, first compound 10 µM)?
Answer: 178%

Question: With `CC(=O)c1c(C)c2cnc(Nc3ccc(N4CCNCC4)cn3)nc2n(C2CCCC2)c1=O` as the molecule, how does the viability, T/C (compound 0.000949 µM) read?
Answer: 95.6% and 98.8%

Question: What about the viability, T/C (compound 0.003 µM) of the same molecule?
Answer: 104% and 90.5%

Question: And the viability, T/C (compound 0.00949 µM)?
Answer: 102% and 101%

Question: What about the viability, T/C (compound 0.03 µM) of the same molecule?
Answer: 93.2% and 87.6%

Question: What about the viability, T/C (compound 0.0949 µM) of the same molecule?
Answer: 94.9% and 92%

Question: And the viability, T/C (compound 0.3 µM)?
Answer: 100% and 84.8%

Question: What about the IC50 (curve of compound) of the same molecule?
Answer: > 300 nM
